Reference: patent US20240352022A1, “GROUP OF IMB-C5 SERIES COMPOUNDS HAVING ANTI-CORONAVIRUS ACTIVITY AND APPLICATION THEREOF” (priority 2021, published 2024)

System: SARS-COV-2 Beta variant
Assay: microbe, parasite or virus in culture
Format: cell-based, Human coronavirus SARS-COV-2 Beta variant
Conditions: for IC50: Severe acute respiratory syndrome coronavirus 2, Vero C1008

| Structure (SMILES) | IC50 [µM] | inhibitory activity against SARS-COV-2 (in words) |
| --- | --- | --- |
| CCC(CC)COC(=O)[C@H](C)N[P@](=O)(OC[C@H]1O[C@@](C#N)(c2ccc3c(N)ncnn23)[C@H](O)[C@@H]1O)Oc1ccccc1 [Remdesivir, reference compound] | 0.73 |  |
| COc1cccc(Cn2c(NCCO)nc3c2c(=O)n(C)c(=O)n3C)c1 [IMB-C5] | 34.8 | had an inhibitory activity against the SARS-COV-2 Beta variant |
